Results published in EP3566700A1, “AMBROXOL FOR DNA DAMAGE REPAIR DISEASE THERAPIES” (Universitat Autònoma de Barcelona, priority 2018, dated 2019).

Tests used:
[1] = tested on: Fanca-deficient mice; test: Histopathology study of spleen, liver and lung; assay type: in vivo
Description: (§1) Fanca-deficient mice strain was Fanca^tm1Faw and genetic background 129P2/OlaHsd * FVB with exon deletion 4-7 (c.f. Cheng NC et al., "Mice with a targeted disruption of the Fanconi anemia homolog Fanca", Hum Mol Genet. 2000, vol. 9(12), pp. 1805-11). 30 male mice were randomized by age (12 to 16 weeks) and weight (25 grams on average) in three experimental groups (water, NAC and AMB).
(§2) NAC (40mM) (used for comparative purposes) and Ambroxol (1mM) were administered in drinking water (filtered and UV irradiated) ad libitum. To monitor MN on blood cells (erythrocytes and reticulocytes) mice were tail bleeded on weeks 1, 2, 4, 6, 8, 12, 16 and 24. Hematological parameters and blood counts were also evaluated. At the end of the study mice were euthanized and bone marrow, blood and organ samples (spleen, lung, and liver) collected.
A total of 7 mice were studied in the placebo (water) group and 10 mice in the NAC or Ambroxol treated groups. Samples (spleen, liver and lung) were fixed overnight in 10 % neutral buffered formalin, embedded in paraffin, sectioned in 3 µm thick and dried. Slides were dewaxed and re-hydrated through a series of graded ethanol until water and finally stained with hematoxilin-eosin (H-E). Photographs were taken using an Olympus DP73 digital camera and a Vanox AHBS3 Olympus microscope.

[2] = tested on: FANCD2 ubiquitination; test: FANCD2 ubiquitination by Western blotting; assay type: cell-based, human; details: two FANCA-deficient lymphoblastoid cell lines
Description: To disregard a direct effect on FA/BRCA pathway, FANCD2 ubiquitination was analyzed by Western blotting in two different FANCA-deficient lymphoblastoid cell lines.

[3] = tested on: Fanca-deficient mice; test: Chronic treatment of Fanca-deficient mice: survival and general health; assay type: in vivo
Description: as §1, §2

[4] = tested on: FANCA-deficient lymphoblastoid cell lines; test: FCM assay: cell cycle analysis (cells in G2/M phase); assay type: cell-based, human; details: three FANCA-deficient cell lines; basal around 20% without treatment
[5] = tested on: Fanca-deficient mice; test: Telomere fluorescence analysis on spleen tissue sections by Q-FISH; assay type: in vivo; details: for telomere length: compared with control treatment (water)
Description: as §1, §2
Quantitative telomere fluorescence in situ hybridization (Q-FISH) was performed directly on spleen tissue sections as previously described (c.f. Flores I et al., "The longest telomeres: a general signature of adult stem cell compartments", Genes Dev. 2008; vol. 22(5), pp. 654-67). Spleen tissue was hybridized with the PNA telomeric oligonucleotide (CCCTTA)3 labeled with Cy3 (PE Biosystems). After that, digital images were acquired.
Confocal microscopy was performed at room temperature with a laser-scanning microscope (TSC SP5) using a Plan Apo 63Å-1.40 NA oil immersion objective (HCX). Maximal projection of z-stack images generated using advanced fluorescence software (LAS) was analyzed with Definiens XD software package. DAPI images were used to detect telomeric signals inside each nucleus. To study telomere length, average intensity of individual telomeres of around 940 nuclei per mouse was analyzed. To study short telomeres, intensity of around 31,000 individual telomeres was studied per mouse. A total of 7 mice were studied in the control group and 10 mice in NAC or Ambroxol groups.

[6] = affected mice/mice studied, H2O 0/7
[7] = affected mice/mice studied, H2O 1/7
[8] = affected mice/mice studied, H2O 2/7

Nc1c(Br)cc(Br)cc1CN[C@H]1CC[C@H](O)CC1 [Ambroxol, trans-4-(2-amino-3,5-dibromobenzylamino)cyclohexanol]
Liver, Light/moderate: Steatosis [1, 6]: 2/10 | Lung, Light/moderate: Pleuritis [1, 6]: 1/10 | Liver, Light/moderate: Vascular congestion [1, 7]: 1/10 | Liver, Severe: Multiple myeloid precursor infiltration [1, 7]: 0/10 | Lung, Light/moderate: BALT activation [1, 7]: 1/10 | Lung, Light/moderate: Fibrosis [1, 7]: 0/10 | Lung, Light/moderate: Interstitial pneumonia [1, 7]: 5/10 | Lung, Severe: General vascular congestion [1, 7]: 0/10 | Lung, Severe: Myeloid-shape cellullar embolism [1, 7]: 0/10 | Lung, Severe: Osseous metaplasia [1, 7]: 0/10 | Spleen, Light/moderate: Lymphoid hyperplasia [1, 7]: 3/10 | Liver, Severe: Vesicular steatosis [1, 8]: 0/10 | Spleen, Severe: Spleen hyperplasia (likely linfoma) [1, 8]: 0/10 | Liver, Light/moderate: Chronic hepatitis (perivascular) ([1]; affected mice/mice studied, H2O 3/7): 7/10 | severe organ defects ([1]; end of experiment (1 year)): no severe organ defects | FANCD2 ubiquitination [2]: unable to restore FANCD2 ubiquitination | survival at the end of the experiment ([3]; 1 year, Ambroxol 1mM in drinking water ad libitum, 40 % of control mice alive): All mice from the Ambroxol group were alive and healthy | general health condition and survival ([3]; related to untreated mice): improvement | percentage of cells in G2/M phase in basal conditions [4]: lowered this percentage | improvement in telomere's length with respect to NAC ([5]; one year of treatment): about 5 fold | telomere length ([5]; one year of treatment): significant increase | length of short telomeres ([5]; untreated versus Ambroxol treated mice): significantly shorter in untreated mice | proportion of short telomeres respect the total number of telomeres ([5]; untreated versus treated mice): significantly bigger in untreated mice

CC(=O)N[C@@H](CS)C(=O)O [NAC, N-acetylcysteine]
telomere length ([5]; one year of treatment): modest improvement
